Seven compounds from ChEMBL document CHEMBL1201862, “PubChem BioAssay data set” (2004) can be followed below.

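The compound was tested at five concentrations on cells cultured in 96-well plates, with a 48-hour exposure period. Here, GI50 denotes the concentration required for 50% inhibition of growth.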 The source made the active and inactive calls. Rule as the data show it: active = GI50 up to about 1.1 µM and inactive = higher.

Assay in all cases: NCI tumour cell line growth inhibition, 48 h
The subject of experiment [1] is ACHN.
The subject of experiment [2] is HCT-116.
Experiment [3] relates to HL-60.
Experiment [4] relates to HOP-62.
For experiment [5], the system named is HT-29.
Experiment [6] has as its system KM12.
Experiment [7] has as its system M14.
Experiment [8] deals with MDA-N.
In experiment [9] the test system is MOLT-4.
Experiment [10] deals with NCI-H226.
Experiment [11] deals with NCI/ADR-RES.
For experiment [12], the system named is OVCAR-8.
Experiment [13] concerns PC-3.
The test system of experiment [14] is RPMI-8226.
Experiment [15] has as its system SN12C.
The test system of experiment [16] is SR.
The subject of experiment [17] is TK-10.
For experiment [18], the system named is UACC-257.
Experiment [19] deals with UO-31.

In the case of `COc1ccc2c(c1)CCCC(Br)C2=O` (stereo not drawn), the GI50 in experiment [1] is 6.32 µM (inactive); in experiment [2] it was 0.407 µM (active); in experiment [3] it was 3.59 µM (inactive); in experiment [4], 5.55 µM (inactive); in experiment [5], 5.31 µM (inactive); in experiment [6], 3.24 µM (inactive). Besides, the GI50 was 3.4 µM (inactive) in [7]; 2.88 µM (inactive) in experiment [8]; 0.136 µM (active) in experiment [9]; 2.18 µM (inactive) in experiment [10]; 4.34 µM (inactive) in experiment [11]; 3.98 µM (inactive) in experiment [12]. Also, the GI50 in [13] was 3.9 µM (inactive); in experiment [14], 2.34 µM (inactive); in experiment [15], 2.75 µM (inactive); in [16], 0.294 µM (active); in experiment [17], 4.21 µM (inactive); in [18], 11.5 µM (inactive). Also, the GI50 in experiment [19] is 2.17 µM (inactive).

As for `CC(C)c1ccc(C(c2c(O)oc3ccccc3c2=O)c2c(O)oc3ccccc3c2=O)cc1`, the GI50 in [1] was 26.2 µM (inactive); in experiment [2] it was 17 µM (inactive); in experiment [3], 6.03 µM (inactive); in experiment [4], 21.4 µM (inactive); in experiment [5], 20.8 µM (inactive); in experiment [6], 19.5 µM (inactive). For the same compound, the GI50 in experiment [7] was 19.6 µM (inactive); in [8] it was 21.5 µM (inactive); in experiment [9] it was 6.55 µM (inactive); in [10], 20.6 µM (inactive); in experiment [11], 22.3 µM (inactive); in experiment [12] it was 19.1 µM (inactive). The GI50 was 19 µM (inactive) in experiment [13]; 17.7 µM (inactive) in [14]; 19.4 µM (inactive) in experiment [15]; 9.64 µM (inactive) in [16]; 24.6 µM (inactive) in experiment [17]; 21.3 µM (inactive) in experiment [18]. Also, the GI50 in experiment [19] was 13.8 µM (inactive).

`CSC(Cc1ccc2c(c1)Sc1ccccc1O2)=[N+]1CCOCC1`: the GI50 in experiment [1] is 58.3 µM (inactive); in [2], 41.4 µM (inactive); in experiment [3] it was 37.9 µM (inactive); in experiment [4], > 100 µM (inactive); in experiment [5], 43.9 µM (inactive); in experiment [6], 51.4 µM (inactive). Besides, the GI50 is 72.9 µM (inactive) in experiment [7]; 54.5 µM (inactive) in [8]; 35.7 µM (inactive) in [9]; 55.8 µM (inactive) in experiment [10]; 56.8 µM (inactive) in experiment [11]; 52.6 µM (inactive) in [12]. For the same compound, the GI50 in [13] was 44.7 µM (inactive); in experiment [14], 49.8 µM (inactive); in experiment [15], > 100 µM (inactive); in experiment [16], 3.37 µM (inactive); in [17] it was > 100 µM (inactive); in experiment [18], 43 µM (inactive). Moreover, the GI50 in experiment [19] is 36.8 µM (inactive).

On to `COC12C=CC(CC1)C(C)(C)C2=O` (stereo not drawn), for which the GI50 in experiment [1], in experiment [2], in experiment [3], in experiment [4], in experiment [5] and in experiment [6] was > 100 µM (inactive) in each case. Moreover, the GI50 in experiment [7], in [8], in experiment [9], in [10], in [11] and in experiment [12] was > 100 µM (inactive) each time. The GI50 in experiment [13], in [14], in [15], in experiment [16], in experiment [17] and in experiment [18] was > 100 µM (inactive) in each case. Moreover, in experiment [19], the GI50 was > 100 µM (inactive).

As to `O=C(O)C(Cc1ccc2c(c1)CCC2)(Cc1ccc2c(c1)CCC2)C(=O)O`, the GI50 in [1], in experiment [2], in [3], in [4], in [5] and in [6] was > 100 µM (inactive) in each case. The GI50 in experiment [7], in experiment [8], in [9], in [10], in experiment [11] and in experiment [12] was > 100 µM (inactive) in each case. The GI50 in experiment [13], in [14], in [15], in experiment [16], in experiment [17] and in experiment [18] was > 100 µM (inactive) each time. Moreover, in experiment [19], the GI50 was > 100 µM (inactive).

Take `COC(=O)c1ccc(/C=C2\CCc3ccccc3C2=O)cc1`: the GI50 in [1], in [2], in [3], in experiment [4], in experiment [5] and in [6] was > 100 µM (inactive) each time. The GI50 in [7], in experiment [8], in experiment [9], in experiment [10], in experiment [11] and in experiment [12] was > 100 µM (inactive) each time. In addition, the GI50 in [13], in experiment [14], in experiment [15], in experiment [16], in experiment [17] and in [18] was > 100 µM (inactive) each time. In experiment [19], the GI50 was > 100 µM (inactive).

With `CC(=O)O[C@H]1C(=O)[C@@]2(C)[C@H]([C@H](OC(=O)c3ccccc3)[C@]3(O)C[C@H](OC(=O)[C@H](O)[C@@H](NC(=O)c4ccoc4)c4ccccc4)C(C)=C1C3(C)C)[C@]1(OC(C)=O)CO[C@@H]1C[C@@H]2O`, the GI50 was 0.37 µM (active) in experiment [1]; 0.0147 µM (active) in experiment [2]; 0.0136 µM (active) in [3]; 0.212 µM (active) in [4]; < 0.01 µM (active) in experiment [5]; < 0.01 µM (active) in [6]. Moreover, the GI50 in experiment [7] was 0.09 µM (active); in [8], 0.00361 µM (active); in [9] it was 0.0332 µM (active); in [10], 0.0386 µM (active); in experiment [11], 44 µM (inactive); in experiment [12] it was 0.067 µM (active). Besides, the GI50 in [13] is 0.0212 µM (active); in experiment [14] it was 0.00871 µM (active); in [15] it was 0.0338 µM (active); in experiment [16] it was 0.0355 µM (active); in experiment [17], 0.0861 µM (active); in experiment [18], 16 µM (inactive). Also, the GI50 in [19] is 3.39 µM (inactive).
